Patent US10131635B2, “Compositions and methods of using the compositions for plaque softening” (ALUMEND, LLC, priority 2013, dated 2018)
Entries after “also recorded” stand apart in the source; their conditions may differ.

Legend:
artery = assay: Artery treated with composition, angioplasty and photoactivation: fissure observation; set-up: species or system human
Procedure: The tissue was an artery approximately 7.4 mm in diameter. An Ultra-thin SDS 8 mm×30 mm catheter was used to dilate the artery to 7.55 mm (approximately a 2% overstretch). A fissure or a possible dissection running down the length of the tissue sample was observed.
A section (6.5 cm in length) of artery was exposed to the composition for 5 minutes. An 80 mm catheter was used to impart a 25% overstretch to the artery. The angioplasty was followed by photoactivation at 1800 mW for 60 seconds using the same 80 mm catheter with a 60 mm light fiber centered in the catheter.
A catheter with an 80 mm treatment zone balloon was used however the photoactivating light fiber was only 60 mm in length. During activation it was noted that the light fiber was shifted distally in the catheter. This meant that the distal end of the artery was receiving photoactivation, however, the proximal end received little or no light. A fissure down the length of the artery was again observed.

[1] = Storage stability of the naphthalimide dimer (solution and powder); assay type: physicochemical
Source text: A preparative HPLC approach was used to isolate and specifically purify the compound of formula (V) dimer from the compound of formula (V) naphthalimide product produced from the ethanol crystallization. The HPLC method used was based on the purity method outlined above; however, method modifications were made to replace acetonitrile with ethanol and TFA with acetic acid in the mobile phase. The preparative separation utilized a C18 column (X-bridge, 10 μm, 19×250 mm, Waters). The mobile phase consisted of mobile phase A, 0.1% acetic acid (aq), and mobile phase B, 9:1 ethanol:water (0.1% v/v acetic acid). The column was pre-equilibrated at a starting mobile phase of 95% A:5% B for 20 minutes, at the start of the gradient was a 2 minute hold followed by a linear gradient to 90% B at 40 minutes and a 10 minute hold. An injection volume of 8.5 mL (12 mg/mL purified compound of formula (V)) and flow rate of 8.5 mL/minute were used as well as a detector wavelength of 440 nm. The compound of formula (V) fractions were collected and analyzed using the analytical purity method presented above. Fractions meeting a minimum purity criterion were combined and the solvent driven off by rotovapping the solution to dryness. […] Finally the product was quantitatively transferred from the round bottom flask to a freeze drying flask by dissolving the product in a minimal amount of deionized water. […]

[2] = test system: hard and soft plaque of common and lower femoral artery; assay: Tissue immersion: hardness of plaque by manipulation with a forcep; set-up: species or system human; conditions: PBS pH 7.4
Source text: A sample of human tissue from the common and lower femoral artery was received. It was stored in saline and refrigerated until use. Based upon visual and tactile observations, the arteries were approximately 7-8 mm in diameter and contained evidence of both hard and soft plaque. The soft plaque has a yellow fatty appearance that is distinguishable from the vessel wall. The hard plaque presents itself as hard pieces of material that can be pulled (with a forceps) from the soft plaque. Sections of the artery suitable for catheter work were segregated and stored in phosphate buffered saline (PBS), pH=7.4. From the remaining arterial sections, pieces of tissue containing both hard and soft plaque were removed. These pieces were either placed in a solution of PBS (pH=7.4), or dimeric naphthalimide, such as a compound of formula (V) (which is in PBS, pH=7.4). Prior to immersion in either solution the relative hardness of the plaque was evaluated via manual manipulation with a forcep. After a 5 minute soak in solution (typical exposure time), no difference in the samples soaked in PBS was noticed (control). […] The samples were then left in their respective solutions for an additional 90 minutes.

[3] = test system: plaque in diseased arteries from limb amputations; assay: Plaque penetration: diseased arteries soaked with composition, balloon and light activation, visual and histological examination; set-up: species or system human; conditions: 2 mg/mL in PBS pH 7.4, 5 minute soak
Procedure: Diseased arteries were obtained from limb amputations (leg) due to advanced Periperal Arterial Disease (PAD) from patients at a regional hospital. The received arteries were evaluated and chosen such that the diseased section was of reasonable size to accommodate the treatment catheter balloon length being used. The catheter balloon diameter used was also matched to the diameter of the artery and capable of achieving a 1:1.25 (ratio of artery diameter to balloon diameter) overstretch. The artery was laid in a petri dish and an angioplasty balloon was inserted and inflated for 60 seconds to impart the desired overstretch. While the angioplasty balloon was inflated a permanent marker was used to define the treatment zone (where the overstretch was imparted by the balloon) on the outer surface of the artery. The angioplasty balloon was deflated and removed. The inner lumen of the diseased artery was exposed to a plaque softening composition comprising a compound of formula (V) naphthalimide formulation (2 mg/mL in phosphate buffered saline, pH=7.4) for a period of 5 minutes. For the purpose of filling the artery, one end was clamped, the artery was held upright and a syringe was used to dispense the naphthalimide solution until the inner lumen was filled. The open end of the artery was then clamped and the soaking period of 5 minutes commenced. […] Arteries were cut open lengthwise and the treated section was evaluated by visual examination.
Prior to cutting the artery for visual examination samples from the treated and untreated sections were collected and preserved for histological examination. […] After this time, samples were stored in a −80° C. freezer until ready for further analysis. […] The crystalline nature of hard plaque is readily visible without staining. Under this magnification the crystalline structure of the calcific plaque was readily visible, as shown in FIG. 8 the dark area between the two lighter colored areas of the media. […]

In the case of NCCOCCOCCN1C(=O)c2cccc3c(NCCOCCOCCNc4ccc5c6c(cccc46)C(=O)N(CCOCCOCCN)C5=O)ccc(c23)C1=O [compound of formula (V)], the repair of fissure (artery; angioplasty, then composition, distal part with adequate photoactivation) is reported as “there appeared to be a seam indicating repair”, the “fissure in opened artery” value (artery; composition 5 minutes, then angioplasty 25% overstretch, photoactivation 1800 mW 60 seconds) is reported as “no fissure observed” and the “degradation of dimer in powder form” value ([1]; periods exceeding two years of storage in a dessicator at −20° C.) is reported as “no evidence of degradation”. The “stability of dimer solution (excellent stability for periods up to)” value ([1]; solution at pH 7.4) was “up to 18 months”, the “relative hardness of plaque” value ([2]; after a 5 minute soak) was “slight softening” and the “relative hardness of plaque” value ([2]; after an additional 90 minutes in solution) was “significantly softer and more pliable”. For the same compound, the “observation of tacking of intimal flaps” value ([3]; 447 nm 625 mW/cm 60 seconds) was “tacking of intimal flaps”, the “visual observation of plaque softness in treated region” value ([3]; 447 nm 625 mW/cm 60 seconds) was “apparent softened plaque in the treated region; also recorded: more malleable” and the “calcium crystals under microscope, treated vs untreated sections” value ([3]; light activation) was “less evidence of calcium crystals”.
